Test system: primary human CNS neurons
Experiment: Cellular toxicity in primary human neurons (phase contrast, MTT)
Assay type: cell-based
Settings: for toxicity in human neurons: concentrations up to 100 μM; for neuronal morphology / mitochondrial reductive potential (MTT): primary human neurons; for neuronal morphology: 100 μM, 24 h; for mitochondrial reductive potential (MTT): 24 or 48 h
Procedure: HCT116: Human colon carcinoma (HCT116) cells (ATCC, Manassas, VA, USA) were cultured in McCoy’s 5A modified media (Thermo Fisher Scientific, Waltham, MA, USA) supplemented with 10% fetal bovine serum (Thermo Fisher Scientific, Waltham, MA, USA) and transfected with 1 μg of pCep4βCasp6p20p10 mixed with 8 μg of polyethyleneimine (Polysciences Inc., Warrington, PA, USA). Protein expression was allowed for 24 h before treating with vehicle (PBS), 100 μM NWL-117, or 100 μM NWL-154 for 2 h. For NWL inhibitor kinetic experiments, 100 μM of NWL-117 or NWL-154 was added at 120, 90, 60, 30, 15, or 0 min before harvest. […] For recovery time course experiments, after the initial treatment with 100 μM of NWL-117 or −154 for 2 h, the media was replaced with fresh media for 120, 90, 60, 30, 15, or 0 min before harvest. Primary Human CNS neurons: Cortical tissues were obtained from the Birth Defects Research Laboratory (BDRL, University of Washington, Seattle, USA) in accordance with NIH ethical guidelines approved by McGill University’s institutional review board and primary neurons cultured as previously described. Primary human neurons were seeded on poly-L-lysine-coated (5 μg/mL) 6-well plates or glass coverslips coated with poly-L-lysine and laminin (5 μg/mL) (Sigma-Aldrich, Oakville, ON, CA) at a density of 3x10^6 cells/mL. Primary human neurons were pre-treated with 0.1 μM epoxomicin (Enzo LifeSciences, Farmingdale, NY, USA) and 100 μM NWL-117, 100 μM NWL-154, or vehicle (PBS) for 2 h, and serum-deprived for 2 h in the presence of epoxomicin and vehicle (PBS), 100 μM NWL-117, or 100 μM NWL-154 before harvesting or measuring caspase activity with FLICA, as described below.
Immunofluorescence on human neuron cultures: Primary human neurons were pre-treated 2 h and serum-deprived in the presence of 100 μM NWL-117, 100 μM NWL-154, or 5 μM Z-VEID-fmk (Biomol, Plymouth meeting, PA, USA) for 24 h. Following treatment, human neurons were washed once with warm PBS, fixed for 20 min at room temperature with 4% paraformaldehyde (Sigma, Oakville, ON, CA)/4% sucrose (BioRad, Mississauga, ON, CA) for TubΔCasp6 or 2% formaldehyde (Thermo Fisher Scientific, Waltham, MA, USA)/0.2% glutaraldehyde (Sigma, Oakville, ON, CA) for pBudEGFP or pBudEGFP/APP^WT-transfected neurons, incubated in permeabilization buffer (0.1% Triton X-100, 0.1 sodium citrate) for 1 min on ice, washed with PBS, blocked for 20 min at room temperature with 10% goat serum (Sigma, Oakville, ON, CA), and incubated with primary antibodies diluted in 10% goat serum in PBS overnight at 4 °C in a humid chamber. The glass coverslips were washed with PBS, and incubated with goat anti-rabbit secondary antibody coupled to Alexa 488 (Molecular Probes, Eugene, OR, USA) or Cy3 (GE Healthcare Life Sciences, Baie D’Urfe, QC, CA) and Hoechst 33342 (ImmunoChemistry, Bloomington, MN, USA) at 1 μg/mL for 2 h at room temperature. The coverslips were washed with PBS and rinsed in Milli-Q water before mounting in fluoromount (Dako, Burlington, ON, CA). Images were acquired by fluorescence microscopy and quantified using the ImageJ software (NIH, Bethesda, MD, USA) for TubΔCasp6 and manually counted for transfected EGFP(+)-neurons. Time lapse-imaging by live fluorescence microscopy: Primary human neurons were transfected with gold beads coated with pBudEGFP or pBudEGFP/APP^WT using a Helios Gene gun (BioRad, Mississauga, ON, CA). Briefly, cells were pre-treated with 100 μM NWL inhibitors or 5 μM Z-VEID-fmk for 2 h. The media was removed and the neurons were shot at 100 psi. The media was quickly replaced with the inhibitors present. The plasmid was expressed for 16 h before setting up the fluorescence microscope (Nikon Eclipse Ti) to acquire 20 images per condition every hour for 72 h at 37 °C with 5% CO2. The images were analyzed by counting the total number of neurons (50–100 neurons per condition per independent experiment), and the number of beaded, swollen soma, and healthy neurons. […]

Question: Which “toxicity in human neurons” value does the source give for CCC(C)[C@H](NC(=O)[C@H](CCC(=O)O)NC(=O)[C@@H](NC(=O)OCc1ccccc1)C(C)C)C(=O)N[C@H](/C=C/S(C)(=O)=O)CC(=O)O (stereo partly drawn) [NWL-117] here?
Answer: neither NWL-117 nor −154 is toxic

Question: What about the neuronal morphology of the same molecule?
Answer: did not change neuronal morphology

Question: And the “mitochondrial reductive potential (MTT)” value?
Answer: comparable to vehicle-treated neurons

Question: Which results are given for CCC(C)[C@H](NC(=O)[C@H](CCC(=O)O)NC(=O)[C@@H](NC(=O)OCc1ccccc1)C(C)C)C(=O)N[C@H](/C=C(\Cl)S(C)(=O)=O)CC(=O)O (stereo partly drawn) [NWL-154]?
Answer: toxicity in human neurons: neither NWL-117 nor −154 is toxic; neuronal morphology: did not change neuronal morphology; mitochondrial reductive potential (MTT): comparable to vehicle-treated neurons

Source: publication PMC5329948, “Caspase vinyl sulfone small molecule inhibitors prevent axonal degeneration in human neurons and reverse cognitive impairment in Caspase-6-overexpressing mice” (Molecular Neurodegeneration, 2017)
